According to patent US12558348B2, “Bioactive phytochemicals” (Phytoquest Limited, priority 2019, dated 2026):

Tested on: IL-12
Assay: IL-12 ELISA in LPS stimulated THP-1 cells
Format: cell-based, human
Conditions: for % reduction in IL-12 levels: vs LPS control
Description: The cells in an 80% confluence culture flask were aspirated and centrifuged at 1500 rpm for 5 mins. The cell pellet was then resuspended in 1 ml of RPMI complete media and 1×10^5 cells/well seeded to each well of the 96 well microtiter plate. After 24 hrs incubation, PMA (10 ng/ml) was added to the 96 well plate to differentiate THP-1 cells to determine the TNF-α production, THP-1 cells were pretreated for 1 hr with idoBR1 or cucumber extract-Q-actin (batch no. […] Post incubation, the cell supernatant from each of the wells was aspirated into sterile micro centrifuge tubes and centrifuged at 1000 rpm for 2-3 mins. The cell supernatant was then used for evaluation of presence of cytokines using ELISA.
ELISA plates coated with antibodies for IL-12, IL-1β, or IL-10 (R&D Systems, USA) were used for the following study. To each well 50 μL of Assay Diluent RD1F was added after mixing well. 200 μL of sample (idoBR1 or extract), or control per well was added and covered with an adhesive strip. Following incubation for 2 hours at room temperature each well was aspirated and washed 4 times with Wash Buffer (400 μl). After the last wash, any remaining Wash Buffer was removed by aspirating or decanting. The plates were inverted and blotted against clean paper towels. To each well 200 μl of appropriate human conjugate was added and these then covered with a new adhesive strip and incubated for 1 hour at room temperature. The aspiration/wash was then repeated. 200 μL of Substrate Solution was then added to each well and further incubated for 20 minutes at room temperature protected from light. 50 μL of Stop Solution was added to each well. The colour in the wells was changed from blue to yellow. OD was measured within 30 minutes at 450 nm.

O=C(O)[C@@H]1NC[C@H](O)[C@@H](O)[C@@H]1O [idoBR1, (2R,3R,4R,5S)-3,4,5-trihydroxypiperidine-2-carboxylic acid]
IL-12 (12.5 μg/mL): 104.23 pg/mL | % reduction in IL-12 levels (12.5 μg/mL): 11.22% | IL-12 (25 μg/mL): 97.37 pg/mL | % reduction in IL-12 levels (25 μg/mL): 17.07% | IL-12 (50 μg/mL): 92.89 pg/mL | % reduction in IL-12 levels (50 μg/mL): 20.88% | IL-12 (100 μg/mL): 88.60 pg/mL | % reduction in IL-12 levels (100 μg/mL): 24.53%
